Measurements published in patent publication US20080152735A1, “Herbal Extract Having Anti- Influenza Virus Activity and Preparation of Same” (NATIONAL DEFENSE MEDICAL CENTER, priority 2006, published 2008).
Read-outs that look alike come from different tables or passages of the source.

Tests used:
influenza virus (H1N1) = test: in vitro anti-influenza virus test in MDCK cells, MTT readout; assay type: cell-based
[1] = system: neuraminidase (NA) of influenza virus; assay type: biochemical; details: for FU/min (neuraminidase enzymatic activity in presence of medicament): kit positive control 0.42 FU/min; for activity relative to that of Tamiflu: same dosage 0.5 mg/mL, ratio of FU/min values
[2] = system: MDCK cells (Madin-Darby Canine Kidney Epithelial Cells)

NC(=O)c1ncn([C@@H]2O[C@H](CO)[C@@H](O)[C@H]2O)n1 [Ribavirin, reference compound]
D1 + V (influenza virus (H1N1); MTT absorbance percentage vs mock control, […], dosage 9.37 μg/mL, MDCK cells, H1N1): +++ (>75≦100 as +++)

CCOC(=O)C1=C[C@@H](OC(CC)CC)[C@H](NC(C)=O)[C@@H](N)C1 [Tamiflu, reference compound]
Response ([1]; dosage 0.5 mg/mL): Inhibition | FU/min (neuraminidase enzymatic activity in presence of medicament) ([1]; dosage 0.5 mg/mL): 0.01 FU/min

O=c1c(O)c(-c2ccc(O)cc2)oc2cc(O)cc(O)c12 [SOFL-EM-8-6S, kaempferol]
Response ([1]; dosage 0.5 mg/mL): Inhibition | FU/min (neuraminidase enzymatic activity in presence of medicament) ([1]; dosage 0.5 mg/mL): 0.06 FU/min | activity relative to that of Tamiflu [1]: six-fold | cell survival rate (influenza virus (H1N1); D1+V: infecting with virus one hour after pretreatment with test drug, 18.75 μg/mL): up to 75% | D1 + V (influenza virus (H1N1); MTT absorbance percentage vs mock control, virus infection one hour after pretreatment with test drug, dosage 18.75 μg/mL, MDCK cells, H1N1): +++ (>75≦100 as +++) | D [2]: ++++ (key: absorbance percentage≦25 was recorded as +/−; >25≦50 recorded as +; >50≦75 as ++; >75≦100 as +++; >100 as ++++)

CC(C)=CCc1c(O)cc2oc(-c3ccc(O)cc3)c(O)c(=O)c2c1O [SOFL-EM-8-6C, licoflavonol]
Response ([1]; dosage 0.05 mg/mL): Inhibition | FU/min (neuraminidase enzymatic activity in presence of medicament) ([1]; dosage 0.05 mg/mL): 0.13 FU/min | Response ([1]; dosage 0.5 mg/mL): Inhibition | FU/min (neuraminidase enzymatic activity in presence of medicament) ([1]; dosage 0.5 mg/mL): 0.02 FU/min | activity relative to that of Tamiflu [1]: two-fold | cell survival rate (influenza virus (H1N1); D1+V: infecting with virus one hour after pretreatment with test drug, 10 μg/mL): up to 100% | cell survival rate (influenza virus (H1N1); DV: cells treated simultaneously with test drug and virus, 10 μg/mL): 75% | DV (influenza virus (H1N1); MTT absorbance percentage vs mock control, cells treated simultaneously with test drug and virus, dosage 10 μg/mL, MDCK cells, H1N1): +++ (>75≦100 as +++) | V1 + D (influenza virus (H1N1); MTT absorbance percentage vs mock control, test drug added one hour after adsorption of virus on cell, dosage 10 μg/mL, MDCK cells, H1N1): ++++ (>100 as ++++) | D1 + V (influenza virus (H1N1); MTT absorbance percentage vs mock control, virus infection one hour after pretreatment with test drug, dosage 10 μg/mL, MDCK cells, H1N1): ++++ (>100 as ++++) | cell survival rate (influenza virus (H1N1); V1+D: test drug added one hour after adsorption of virus on cell, 10 μg/mL): 100%
